Data reported in patent US20260297106A1, “SPIROCYCLIC SUBSTITUTED OXOISOINDOLINYL PIPERIDINE-2,6-DIONE COMPOUND” (Bristol-Myers Squibb Company, priority 2023, published 2026).

Tests used:
IKZF1 Ikaros = IKZF1 Ikaros (Homo sapiens, UniProt Q13422+Q96SW2); assay: Jurkat Cellular Degradation Assay (IKZF1 Ikaros); assay type: cell-based; set-up: endogenous in cells; settings: Jurkat cells, 72 h; for Dmax: human, 100% = no detectable protein remaining, read-out: IKZF1 Ikaros max % deg. observed
Description: Jurkat cells were plated at 80,000 cells/well in 40 μL RPMI+10% FBS in a 384-well cell culture plate prior to using acoustic dispensing technology for adding a compound of interest. Cell cultures were incubated for 72 h at 37° C. and 5% CO2. In order to facilitate analysis, cell cultures were spun down at 200 rpm for 5 min and the supernatant was discarded. After shaking the plate to dislodge the cell pellet, cells were resuspended in 50 μL of Fixation Buffer (eBioscience FoxP3 buffer set 00-5523-00) for 60 min at room temperature. After centrifuging and discarding the supernatant, cells were permeabilized with 50 μL of Permeabilization buffer (eBioscience FoxP3 buffer set 00-5523-00) for 10 min at room temperature. Following permeabilization, cells were spun down and the supernatant was replaced with 20 μL fluorescently labelled antibodies against Helios, Ikaros and Aiolos or corresponding Isotype controls in 1× Permeabilization buffer (Ikaros-Alexa488 [Biolegend, Cat #368408, 1:50], Helios-PE [CST, Cat #29360, 1:50], Aiolos-Alexa647 [Biolegend, Cat #371106 Biolegend, 1:25]) and staining reactions were incubated for 1 h at room temperature while protected from light. Subsequently, 30 μL of 1× Permeabilization buffer was added prior to centrifuging the cells and discarding the supernatant. Stained cells were resuspended in 25 μL of flow cytometry staining buffer [PBS+0.2% bovine serum albumin (BSA)] and analyzed using an Intellicyt Ique Plus flow cytometer.
(§1) Table A-1 lists the maximum observed degradation of the IKZF1 protein, IKZF2 protein, and IKZF3 protein as measured in the Jurkat Cellular Degradation assay. The results in Table A-I were rounded to two digits. In the Jurkat Cellular Degradation assay, a value of 100% indicated no detectable protein remaining or complete degradation of the protein; and a value of 0% indicated no detectable degradation of the protein by the test compound.

IKZF4 Eos = target: T1, IKZF4 Eos (Homo sapiens, UniProt Q96SW2+Q9H2S9); assay: Human Regulatory T Cell Reprogramming Assay (IKZF4 Eos); assay type: cell-based; settings: CD4+ CD127low CD25+ Treg cells, 12-13 days; for DC50: concentration reducing protein level by 50% vs DMSO; for Dmax: Regulatory T cell, human, read-out: Maximum Observed Degradation IKZF4 Eos
T1 construct: T cells were isolated from fresh healthy leukopaks; endogenous in cells; host or cells: FACS-sorted primary human CD4+ CD127low CD25+ Treg cells from healthy leukopaks
Description: Human CD4^+ T cells were isolated from fresh healthy leukopaks (Stemcell Technologies) using the RosetteSep Human CD4^+ T cell enrichment cocktail (Stemcell Technologies) and Ficoll density gradient centrifugation. Leukopaks were diluted with an equal volume of phosphate-buffered saline (PBS [Gibco]) supplemented with 2% fetal bovine serum (FBS, VWR Lifescience) and incubated with RosetteSep Human CD4^+ T cell enrichment cocktail for 20 minutes before layering on Ficoll-Paque Plus solution (GE Health Care). The cell-rich interface layer was harvested and washed twice with PBS supplemented with 2% FBS. Regulatory T cells were then isolated manually using the EasySep Human CD4 CD1271WCD25^+ Regulatory T cell isolation kit (Stemcell Technologies) according to the manufacturer's instructions. Cells were rested overnight in Roswell Park Memorial Institute (RPMI) 1640 media (Gibco) supplemented with 10% FBS, Pen/Strep (Gibco), MEM-NEAA (Gibco), and sodium pyruvate (Gibco) in a humidified incubator (37° C., 5% CO2). Cells were then stained for CD4 (clone: RPA-T4, Biolegend), CD25 (clone: 2A3, BD Biosciences), and CD127 (clone: hIL-7R-M21, BD Biosciences). CD4^+ CD127^lowCD25^+ cells were sorted on a BD FACS Aria Fusion sorter to a purity of 95% or greater. Sorted cells were immediately used or cryopreserved for downstream assays.
Fresh or cryopreserved FACS-sorted CD4^+ CD127^lowCD25^+ Treg cells were cultured at 25,000-50,000 cells/well of 96-well round bottom plates in RPMI 1640 media (Gibco) supplemented with 10% FBS, Pen/Strep (Gibco), MEM-NEAA (Gibco), and sodium pyruvate (Gibco). Cells were stimulated with Treg Xpander beads (Thermo Fisher) at cells-to-beads ratio of 1:4 in the presence of 500 U/mL recombinant human IL-2 (Proleukin). Compounds were added at titrated doses and cells were incubated at 37° C., 5% CO2 for 12-13 days. Recombinant human IL-2 and compound were replenished every 2-3 days during the entire culture duration. On day 12 or 13, cells were restimulated with phorbol 12-myristate 13-acetate (PMA) and ionomycin in the presence of the protein transport inhibitors brefeldin A and monensin (eBioscience Cell Stimulation Cocktail plus protein transport inhibitors, 500×, Catalog number 00-4975-93) before proceeding with flow cytometry staining and analysis.
For flow cytometry staining, cells were washed twice with flow cytometry staining buffer (Thermo Fisher) and incubated in Human Tru-stain Fc block (Biolegend) for 10 minutes before adding eFluor780 viability dye (Thermo Fisher) and surface marker antibody cocktail for 30 minutes at 4° C. Cells were then fixed and permeabilized by incubation with FoxP3 transcription factor staining buffer (Thermo Fisher) for 30 minutes at 4° C. as per the kit manufacturer's instructions. Cells were washed twice with the Perm/Wash buffer supplied in the kit as per the manufacturer's instructions and incubated overnight at 4° C. with an intracellular antibody cocktail comprised of antibodies specific for the transcription factors shown in Table C. Cells were washed twice with Perm/Wash buffer and resuspended in flow cytometry staining buffer (Thermo Fisher) prior to acquisition. Sample acquisition and analysis was performed using a BD LSRFortessa (BD Biosciences) flow cytometer. Single stain controls for each fluorochrome were prepared using UltraComp eBead Compensation Beads (Thermo Fisher). Data were analyzed using FlowJo version 10 and GraphPad Prism Software.
as §1, with “C-1” for “A-1”, “the” for “the IKZF1 protein,”, “protein” for “protein,”, “IKZF4” for “IKZF3”, “Human Regulatory T Cell Reprogramming” for “Jurkat Cellular Degradation”, “C-1” for “A-I”

IKZF1 Ikaros, sequence (Q13422 whole entry): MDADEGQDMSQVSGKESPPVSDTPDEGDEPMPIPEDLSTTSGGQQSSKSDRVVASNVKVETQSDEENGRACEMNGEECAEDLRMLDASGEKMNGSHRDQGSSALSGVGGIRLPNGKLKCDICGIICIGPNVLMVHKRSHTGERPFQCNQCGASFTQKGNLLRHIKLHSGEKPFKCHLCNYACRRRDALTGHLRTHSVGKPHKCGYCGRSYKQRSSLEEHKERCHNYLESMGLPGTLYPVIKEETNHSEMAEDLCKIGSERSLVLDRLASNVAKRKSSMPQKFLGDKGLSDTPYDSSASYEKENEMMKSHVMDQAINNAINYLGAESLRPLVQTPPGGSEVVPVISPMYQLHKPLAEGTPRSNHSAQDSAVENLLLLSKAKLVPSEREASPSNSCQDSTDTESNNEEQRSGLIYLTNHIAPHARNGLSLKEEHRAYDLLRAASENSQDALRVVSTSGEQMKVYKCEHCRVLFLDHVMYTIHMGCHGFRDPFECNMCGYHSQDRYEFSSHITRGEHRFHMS
IKZF1 Ikaros, sequence (Q96SW2 whole entry): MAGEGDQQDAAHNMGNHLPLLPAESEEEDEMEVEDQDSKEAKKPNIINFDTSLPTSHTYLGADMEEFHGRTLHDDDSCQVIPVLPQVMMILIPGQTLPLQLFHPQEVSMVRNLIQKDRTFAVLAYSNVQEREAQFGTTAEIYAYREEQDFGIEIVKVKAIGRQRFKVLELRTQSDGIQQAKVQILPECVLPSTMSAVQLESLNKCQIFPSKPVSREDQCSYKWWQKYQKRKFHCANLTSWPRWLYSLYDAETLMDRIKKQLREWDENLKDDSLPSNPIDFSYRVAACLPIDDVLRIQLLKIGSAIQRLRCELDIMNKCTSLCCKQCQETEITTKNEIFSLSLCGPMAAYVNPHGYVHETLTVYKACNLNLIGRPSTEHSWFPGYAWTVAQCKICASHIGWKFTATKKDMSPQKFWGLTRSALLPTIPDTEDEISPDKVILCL
IKZF1 Ikaros, sequence (Q16531 whole entry partner): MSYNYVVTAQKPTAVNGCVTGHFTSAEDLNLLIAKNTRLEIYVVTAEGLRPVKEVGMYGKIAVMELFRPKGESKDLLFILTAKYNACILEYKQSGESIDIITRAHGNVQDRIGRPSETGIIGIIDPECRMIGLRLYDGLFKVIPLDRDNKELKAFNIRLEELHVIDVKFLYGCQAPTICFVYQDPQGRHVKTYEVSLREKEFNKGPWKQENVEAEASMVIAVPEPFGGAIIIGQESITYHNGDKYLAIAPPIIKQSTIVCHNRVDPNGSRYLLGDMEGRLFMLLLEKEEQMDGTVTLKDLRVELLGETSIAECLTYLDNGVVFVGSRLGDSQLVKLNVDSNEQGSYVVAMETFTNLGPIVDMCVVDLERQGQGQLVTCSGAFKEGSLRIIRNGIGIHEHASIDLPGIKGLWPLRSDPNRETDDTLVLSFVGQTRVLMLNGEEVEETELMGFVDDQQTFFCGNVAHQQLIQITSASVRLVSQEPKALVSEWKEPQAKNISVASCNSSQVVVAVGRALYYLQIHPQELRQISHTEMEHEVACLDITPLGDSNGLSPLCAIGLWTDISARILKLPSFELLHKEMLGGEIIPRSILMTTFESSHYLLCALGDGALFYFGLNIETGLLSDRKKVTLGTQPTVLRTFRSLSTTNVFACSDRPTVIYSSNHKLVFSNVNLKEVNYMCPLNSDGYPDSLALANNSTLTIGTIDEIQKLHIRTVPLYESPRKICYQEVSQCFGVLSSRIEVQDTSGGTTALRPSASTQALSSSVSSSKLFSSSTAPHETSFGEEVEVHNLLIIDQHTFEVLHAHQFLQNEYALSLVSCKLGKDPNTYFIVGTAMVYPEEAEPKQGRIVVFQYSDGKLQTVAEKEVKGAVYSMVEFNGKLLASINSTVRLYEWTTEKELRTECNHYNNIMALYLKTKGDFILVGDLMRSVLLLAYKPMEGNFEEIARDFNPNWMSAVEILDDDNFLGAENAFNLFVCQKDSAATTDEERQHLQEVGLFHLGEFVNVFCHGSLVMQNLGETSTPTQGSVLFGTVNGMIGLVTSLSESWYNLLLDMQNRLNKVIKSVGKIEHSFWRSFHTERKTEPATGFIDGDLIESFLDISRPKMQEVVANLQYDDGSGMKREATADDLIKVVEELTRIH
T1 sequence (Q9H2S9 whole entry): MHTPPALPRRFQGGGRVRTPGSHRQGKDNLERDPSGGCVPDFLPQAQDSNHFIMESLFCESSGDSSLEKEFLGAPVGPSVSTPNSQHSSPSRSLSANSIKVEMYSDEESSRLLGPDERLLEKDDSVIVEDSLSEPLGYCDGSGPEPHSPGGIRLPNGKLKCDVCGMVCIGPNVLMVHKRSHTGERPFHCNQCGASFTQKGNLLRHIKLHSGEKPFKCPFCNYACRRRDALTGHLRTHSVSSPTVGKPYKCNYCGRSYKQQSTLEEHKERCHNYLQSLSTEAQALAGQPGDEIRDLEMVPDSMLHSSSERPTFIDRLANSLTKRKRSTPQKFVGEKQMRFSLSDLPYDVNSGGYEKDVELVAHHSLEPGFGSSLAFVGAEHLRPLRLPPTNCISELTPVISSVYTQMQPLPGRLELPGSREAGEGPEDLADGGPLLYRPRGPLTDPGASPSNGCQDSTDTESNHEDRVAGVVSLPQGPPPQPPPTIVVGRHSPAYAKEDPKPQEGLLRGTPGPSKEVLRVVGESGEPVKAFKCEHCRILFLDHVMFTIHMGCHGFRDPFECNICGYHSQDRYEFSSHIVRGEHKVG
T1 sequence (Q96SW2 whole entry): as the sequence (Q96SW2 whole entry) above
T1 sequence (Q16531 whole entry partner): as the sequence (Q16531 whole entry partner) above

Dmax (IKZF1 Ikaros)	DC50 (IKZF4 Eos)	Dmax (IKZF4 Eos)	DC50 (IKZF1 Ikaros; concentration reducing protein level by 50% vs DMSO)	Structure (SMILES)
13%	0.1 nM	92%		O=C1CCC(N2Cc3c(ccc(-c4cc(CN5CC(c6ccccc6)C5)ccn4)c3F)C2=O)C(=O)N1 (stereo not shown) [Comparative Compound A, 3-(4-fluoro-1-oxo-5-(4-((3-phenylazetidin-1-yl)methyl)pyridin-2-yl)isoindolin-2-yl) piperidine-2,6-dione]
48%	1 nM	95%		Nc1nc(-c2ccc3c(c2)CN(C2CCC(=O)NC2=O)C3=O)ccc1CN1CC2(CCC2)C1 (stereo not shown) [Comparative Compound B, 3-(5-(5-((2-azaspiro[3.3]heptan-2-yl)methyl)-6-aminopyridin-2-yl)-1-oxoisoindolin-2-yl) piperidine-2,6-dione]
53%	3.4 nM	65%	6440 nM	Nc1nc(-c2ccc3c(c2F)CN(C2CCC(=O)NC2=O)C3=O)ccc1CN1CC2(CCCOC2)C1 (stereo not shown) [Example 1, 3-(5-(5-((6-oxa-2-azaspiro[3.5]nonan-2-yl)methyl)-6-aminopyridin-2-yl)-4-fluoro-1-oxoisoindolin-2-yl) piperidine-2,6-dione]
